Experimental data as given in ChEMBL document CHEMBL1150082, “Antheliatin and Zahavins A and B, Three New Cytotoxic Xenicane Diterpenes from Two Soft Corals” (J Nat Prod, 1995).
Values after ≈ are worked out from the molar mass of the structure shown.

Assays:
Assay type in all cases: functional, cell-based
[1] = test system: P388; experiment: Cytotoxicity against mouse P388 cells
[2] = test system: A549; experiment: Cytotoxicity against human A549 cells
[3] = test system: SK-MEL-28; experiment: Cytotoxicity against human SK-MEL-28 cells
[4] = test system: HT-29; experiment: Cytotoxicity against human HT-29 cells

Structure (SMILES) | IC50 [1] | IC50 [2] | IC50 [3] | IC50 [4]
C=C(C)C(CC(OC(C)=O)C1=CO[C@H](OC(C)=O)[C@@H]2C(=C)[C@H](O)C/C=C(\C)CC[C@H]12)OC(C)=O (some centres not stated) [ZAHAVIN B] | 1 µg/mL (≈ 2.1 µM) | 1 µg/mL (≈ 2.1 µM) | 1 µg/mL (≈ 2.1 µM) | 1 µg/mL (≈ 2.1 µM)
C=C1[C@H]2[C@@H](OC(C)=O)OC=C([C@H](OC(C)=O)[C@@H](C=C(C)C)OC(=O)c3ccccc3)[C@H]2CC/C(C)=C/[C@H](OC(C)=O)[C@H]1O [ANTHELIATIN] | 1 µg/mL (≈ 1.68 µM) | 1 µg/mL (≈ 1.68 µM) | 1 µg/mL (≈ 1.68 µM) | 0.1 µg/mL (≈ 0.168 µM)
C=C(C)C(CC(OC(C)=O)C1=CO[C@H](OC(C)=O)[C@H]2C(=C)CC/C=C(\C)CC[C@H]12)OC(C)=O (some centres not stated) [ZAHAVIN A] | 1 µg/mL (≈ 2.17 µM) | 1 µg/mL (≈ 2.17 µM) | 1 µg/mL (≈ 2.17 µM) | 1 µg/mL (≈ 2.17 µM)
